Our source for the IC50 values is patent publication US20250282799A1, “SUBSTITUTED PYRIDO[4,3-d]PYRIMIDINES AS KRAS MODULATORS” (Alterome Therapeutics, Inc., priority 2023, published 2025).

By IC50 is commonly meant the concentration that gives 50% inhibition. A high value points to a need for much substance.

The test system of this assay is KRAS G12V dependent lung adenocarcinoma cell line, NCI-H441. In words: Cellular pERK (Thr202/Tyr204) FRET/HTRF assay. It is filed as cell-based. An excerpt:
“Ras” refers to a protein in the Ras superfamily of small GTPases, such as in the Ras subfamily. […] The Ras proteins play a critical role in the regulation of cell behaviors, including proliferation, differentiation, and survival. […] KRAS G12V, G12D, and G12S variants are common in human cancers and Ras inhibitors binding in or near the Switch II pocket may provide mutant binding selectivity. RAS mutations are known to be often associated with pancreatic, colorectal and non-small-cell lung carcinomas (Lone, A. M. et al. J. Am. Chem. Soc. 2011,133, 11665-74, which is entirely incorporated herein by reference; Dillon, M. B.; Bachovchin, D. A.; Brown, S. J.; Finn, M. G.; Rosen, H.; Cravatt, B. F.; Mowen, K. A. ACS Chem. Biol. 2012, 7, 1198-204, which is entirely incorporated herein by reference; Bachovchin, D. A.; Brown, S. J.; Rosen, H.; Cravatt, B. F. Nat. Biotechnol. 2009, 27, 387-94, Ostrem, J. M.; Peters, U.; Sos, M. L.; Wells, J. A.; Shokat, K. M. Nature 2013, 503, 548-551. Ryan M. B. and Corcoran R. B, Nat. Rev Clin Onco. 2018, 11, 709-720.). Ras proteins are key members in the Ras/Raf/Mitogen-activated protein kinase (MAPK) signaling pathway. This pathway regulates a wide variety of cellular processes, including proliferation, differentiation, apoptosis, and stress responses. One way to measure the impact of an inhibitor of Ras proteins is to measure downstream phosphorylation of proteins in the MAPK pathway. The MAPK pathway includes extracellular signal-regulated kinases named ERK1 and ERK2, which are serine-threonine kinases that regulate cellular signaling under both normal and oncogenic conditions. ERK expression and hyperactivation via phosphorylation plays a major role in cancer progression and are downstream of Ras proteins. The assay used for measuring the downstream impact of Ras inhibition is the use of a highly sensitive cell-based readout of ERK phosphorylation (pERK) specifically on Threonine (Thr) 202 and Tyrosine (Tyr) 204 in a KRAS G12V dependent lung adenocarcinoma cell line, NCI-H441 (ATCC Cat #HTB-174). The assay described herein is suitable for assessing inhibition of Ras and can be tailored for any of the predominant oncogenic mutations in any isoform of Ras (e.g., KRAS, HRAS, and NRAS) by changing the cell line.
pERK was measured using an advanced pERK assay designed for the robust and highly sensitive quantification of ERK phosphorylation on Thr202/Tyr204. This assay is intended for the simple, rapid, and direct detection of endogenous levels of ERK1/2 in cells, but only when ERK is phosphorylated at Thr202 and Tyr204 (Perkin Elmer Catalog #64AERPEH). pERK was detected in a FRET based sandwich assay format using 2 different specific antibodies, one labelled with Eu3+-Cryptate (donor) and the second with d2 (acceptor). When the dyes are in close proximity, the excitation of the donor with a light source (laser or flash lamp) triggers a Fluorescence Resonance Energy Transfer (FRET) towards the acceptor, which in turn fluoresces at a specific wavelength (665 nm). The specific signal modulates positively in proportion to p-ERK1/2 (Thr202/Tyr204). The simple mix-and-read protocol eliminates all wash steps for faster analysis and high-quality output. Briefly, cells were diluted to the desired concentration per well based on a growth curve showing ˜75% confluence within a 24-hour time period at no less than 95% viability. Cell suspension (24 μL) were added into each well of 384-well culture plate and maintained in 37° C. 5% CO2 incubator overnight prior to assay. All compounds were transferred to stock plates using TECAN (EVO200) liquid handler using DMSO as the solubilizing and dilution agent. Test compounds were transferred onto adherent cells using an Echo655 liquid handler. DMSO was employed as negative control. Cells were incubated with test compounds for 1 hr in a 37° C., 5% CO2 incubator following compound addition. […]
(In general: TR-FRET usually uses a lanthanide donor and a delayed reading to cut background.)

The mark [1] stands for this setting: cellular pERK HTRF, NCI-H441 (KRAS G12V) cells.
Setting [2] is: Homo sapiens, NCI-H441, cellular pERK (Thr202/Tyr204) HTRF, NCI-H441 cells.

Take `[2H]C([2H])(Oc1nc(N2CCOC[C@H]3[C@H](F)[C@H]32)c2cc(F)c(-c3cc(N)cc4ccc(F)c(C#C)c34)c(C)c2n1)[C@@]12CCCN1C[C@H](F)C2` (atropisomer, axis not shown; (aS)) [Example 435, 5-ethynyl-6-fluoro-4-((S)-6-fluoro-4-((1S,7S,8S)-8-fluoro-5-oxa-2-azabicyclo[5.1.0]octan-2-yl)-2-(((2R,7aS)-2-fluorotetrahydro-1H-pyrrolizin-7a(5H)-yl)methoxy-d2)-8-methylquinazolin-7-yl)naphthalen-2-amine]: the IC50 under setting [1] was under 50 nM. Same read-out and setting: the figure for `[2H]C([2H])(Oc1nc(N2CCOC[C@H]3[C@H](F)[C@H]32)c2cc(C#N)c(-c3ccc(F)c4sc(N)c(C#N)c34)c(C)c2n1)[C@@]12CCCN1C[C@H](F)C2` (atropisomer, axis not shown; (aS)) [Example 440, (R)-7-(2-amino-3-cyano-7-fluorobenzo[b]thiophen-4-yl)-4-((1S,7S,8S)-8-fluoro-5-oxa-2-azabicyclo[5.1.0]octan-2-yl)-2-(((2R,7aS)-2-fluorotetrahydro-1H-pyrrolizin-7a(5H)-yl)methoxy-d2)-8-methylquinazoline-6-carbonitrile] is under 50 nM; for `[2H]C([2H])(Oc1nc(N2CCOC[C@H]3[C@H](F)[C@H]32)c2cc(C#N)c(-c3ccc(F)c4sc(N)c(C#N)c34)c(C)c2n1)[C@@]12CCCN1C[C@H](F)C2` (atropisomer, axis not shown; (aS)) [Example 441, (S)-7-(2-amino-3-cyano-7-fluorobenzo[b]thiophen-4-yl)-4-((1S,7S,8S)-8-fluoro-5-oxa-2-azabicyclo[5.1.0]octan-2-yl)-2-(((2R,7aS)-2-fluorotetrahydro-1H-pyrrolizin-7a(5H)-yl)methoxy-d2)-8-methylquinazoline-6-carbonitrile] it is 500 to 10000 nM.

For `[2H]C([2H])(Oc1nc(N2CCOC[C@H]3[C@H](F)[C@H]32)c2cc(F)c(-c3ccc(F)c4sc(N)c(C#N)c34)c(C)c2n1)[C@@]12CCCN1C[C@H](F)C2` (atropisomer, axis not shown; (aS)) [Example 450, 2-amino-7-fluoro-4-((S)-6-fluoro-4-((1S,7S,8S)-8-fluoro-5-oxa-2-azabicyclo[5.1.0]octan-2-yl)-2-(((2R,7aS)-2-fluorotetrahydro-1H-pyrrolizin-7a(5H)-yl)methoxy-d2)-8-methylquinazolin-7-yl)benzo[b]thiophene-3-carbonitrile], under setting [1], the IC50 was in the range of 500 to 10000 nM. On the same count and under the same terms, the same measure for `[2H]C([2H])(Oc1nc(N2CCOC[C@H]3[C@H](F)[C@H]32)c2cc(F)c(-c3ccc(F)c4sc(N)c(C#N)c34)c(C)c2n1)[C@@]12CCCN1C[C@H](F)C2` (atropisomer, axis not shown; (aS)) [Example 451, 2-amino-7-fluoro-4-((R)-6-fluoro-4-((1S,7S,8S)-8-fluoro-5-oxa-2-azabicyclo[5.1.0]octan-2-yl)-2-(((2R,7aS)-2-fluorotetrahydro-1H-pyrrolizin-7a(5H)-yl)methoxy-d2)-8-methylquinazolin-7-yl)benzo[b]thiophene-3-carbonitrile]: under 50 nM; for `[2H]C([2H])(Oc1nc(N2CCOC[C@H]3[C@H](F)[C@H]32)c2cc(F)c(-c3cc(O)cc4ccc(F)c(C#C)c34)c(F)c2n1)[C@@]12CCCN1C[C@H](F)C2` (atropisomer, axis not shown; (aS)) [Example 453, 4-((R)-6,8-difluoro-4-((1S,7S,8S)-8-fluoro-5-oxa-2-azabicyclo[5.1.0]octan-2-yl)-2-(((2R,7aS)-2-fluorotetrahydro-1H-pyrrolizin-7a(5H)-yl)methoxy-d2)quinazolin-7-yl)-5-ethynyl-6-fluoronaphthalen-2-ol]: under 50 nM. Same read-out and setting: the same measure for `[2H]C([2H])(Oc1nc(N2CCOC[C@H]3[C@H](F)[C@H]32)c2cc(F)c(-c3cc(O)cc4ccc(F)c(C#C)c34)c(F)c2n1)[C@@]12CCCN1C[C@H](F)C2` (atropisomer, axis not shown; (aS)) [Example 454, 4-((S)-6,8-difluoro-4-((1S,7S,8S)-8-fluoro-5-oxa-2-azabicyclo[5.1.0]octan-2-yl)-2-(((2R,7aS)-2-fluorotetrahydro-1H-pyrrolizin-7a(5H)-yl)methoxy-d2)quinazolin-7-yl)-5-ethynyl-6-fluoronaphthalen-2-ol]: 500 to 10000 nM. On to `[2H]C([2H])(Oc1nc(N2CCOC[C@H]3[C@H](F)[C@H]32)c2cc(C(F)(F)F)c(-c3cccc4sc(N)c(C#N)c34)c(F)c2n1)[C@@]12CCCN1C[C@H](F)C2` (atropisomer, axis not shown; (aS)) [Example 466, 2-amino-4-((S)-8-fluoro-4-((1S,7S,8S)-8-fluoro-5-oxa-2-azabicyclo[5.1.0]octan-2-yl)-2-(((2R,7aS)-2-fluorotetrahydro-1H-pyrrolizin-7a(5H)-yl)methoxy-d2)-6-(trifluoromethyl)quinazolin-7-yl)benzo[b]thiophene-3-carbonitrile], for which the IC50 (Homo sapiens, NCI-H441, cellular pERK HTRF, NCI-H441 (KRAS G12V) cells) is under 50 nM. As for `[2H]C([2H])(Oc1nc(N2CCOC[C@H]3[C@H](F)[C@H]32)c2cc(F)c(-c3cc(O)cc4ccc(F)c(C#C)c34)c(C)c2n1)[C@@]12CCCN1C[C@H](F)C2` (atropisomer, axis not shown; (aS)) [Example 467, 5-Ethynyl-6-fluoro-4-((R)-6-fluoro-4-((1S,7S,8S)-8-fluoro-5-oxa-2-azabicyclo[5.1.0]octan-2-yl)-2-(((2R,7aS)-2-fluorotetrahydro-1H-pyrrolizin-7a(5H)-yl)methoxy-d2)-8-methylquinazolin-7-yl)naphthalen-2-ol], the IC50 under setting [1] lay in the range of 500 to 10000 nM. Under setting [1], `[2H]C([2H])(Oc1nc(N2CCOC[C@H]3[C@H](F)[C@H]32)c2cc(C(F)(F)F)c(-c3cccc4sc(N)c(C#N)c34)c(F)c2n1)[C@@]12CCCN1C[C@H](F)C2` (atropisomer, axis not shown; (aS)) [Example 468, 2-amino-4-((R)-8-fluoro-4-((1S,7S,8S)-8-fluoro-5-oxa-2-azabicyclo[5.1.0]octan-2-yl)-2-(((2R,7aS)-2-fluorotetrahydro-1H-pyrrolizin-7a(5H)-yl)methoxy-d2)-6-(trifluoromethyl)quinazolin-7-yl)benzo[b]thiophene-3-carbonitrile] gave an IC50 of under 50 nM. In turn, `[2H]C1([2H])CC2(CC2)[C@@]2(C([2H])([2H])Oc3nc(N4CCOC[C@H]5[C@H](F)[C@H]54)c4cnc(-c5cc(N)cc6ccc(F)c(C#C)c56)c(F)c4n3)C[C@@]([2H])(F)CN12` (single isomer, unassigned) [Example 202] came in with an IC50 under setting [2] of under 50 nM.

Regarding `[2H]C1([2H])CC2(CC2)[C@@]2(C([2H])([2H])Oc3nc(N4CCOC[C@H]5[C@H](F)[C@H]54)c4cnc(-c5cc(N)cc6ccc(F)c(C#C)c56)c(F)c4n3)C[C@]([2H])(F)CN12` (single isomer, unassigned) [Example 203], the IC50 under setting [2] was under 50 nM.

`[2H]C1([2H])CC2(CC2)[C@]2(C([2H])([2H])Oc3nc(N4CCOC[C@H]5[C@H](F)[C@H]54)c4cnc(-c5cc(N)cc6ccc(F)c(C#C)c56)c(F)c4n3)C[C@]([2H])(F)CN12` (single isomer, unassigned) [Example 204] showed an IC50 under setting [2] of under 50 nM. For the compound `[2H]C1([2H])CC2(CC2)[C@]2(C([2H])([2H])Oc3nc(N4CCOC[C@H]5[C@H](F)[C@H]54)c4cnc(-c5cc(N)cc6ccc(F)c(C#C)c56)c(F)c4n3)C[C@@]([2H])(F)CN12` (single isomer, unassigned) [Example 205], the IC50 under setting [2] was under 50 nM.
